Measurements reported in PubChem BioAssay AID1259407 (Chemical Carcinogenesis Research Information System (CCRIS), 2018).
Activity calls are given as the source filed them. How the calls were made is not given here.

Test system: CCRIS mutagenicity, Ames/micronucleus/aberration tests
Test: CCRIS mutagenicity studies
Excerpt: The CCRIS database contains chemical records with carcinogenicity, mutagenicity, tumor promotion, and tumor inhibition test results. It was developed by the National Cancer Institute (NCI). Data are derived from studies cited in primary journals, current awareness tools, NCI reports, and other sources. Test results have been reviewed by experts in carcinogenesis and mutagenesis.
CCRIS provides historical information from the years 1985 - 2011. It is no longer updated.
This is an archive assay for CCRIS mutagenicity studies.

[1] = Test System: AMES SALMONELLA TYPHIMURIUM, Strain/Indicator: TA98, Metabolic Activation: NONE, Method: PREINCUBATION
[2] = Test System: AMES SALMONELLA TYPHIMURIUM, Strain/Indicator: TA100, Metabolic Activation: NONE, Method: PREINCUBATION
[3] = Test System: AMES SALMONELLA TYPHIMURIUM, Strain/Indicator: TA102, Metabolic Activation: NONE, Method: PREINCUBATION
[4] = Test System: AMES SALMONELLA TYPHIMURIUM, Strain/Indicator: TA98, Metabolic Activation: NONE, Method: STANDARD PLATE
[5] = Test System: AMES SALMONELLA TYPHIMURIUM, Strain/Indicator: TA98, Metabolic Activation: RAT, LIVER, S-9, AROCLOR 1254, Method: STANDARD PLATE
[6] = Test System: AMES SALMONELLA TYPHIMURIUM, Strain/Indicator: TA100, Metabolic Activation: NONE, Method: STANDARD PLATE
[7] = Test System: AMES SALMONELLA TYPHIMURIUM, Strain/Indicator: TA100, Metabolic Activation: RAT, LIVER, S-9, AROCLOR 1254, Method: STANDARD PLATE

Measured: mutagenic call

CC1C=CC(=O)O1 (configuration not stated)
inactive: [1] inactive; negative | Test System: AMES SALMONELLA TYPHIMURIUM, Strain/Indicator: TA98, Metabolic Activation: RAT, LIVER, S-9, AROCLOR 1254, Method: PREINCUBATION inactive; negative | [2] inactive; negative | Test System: AMES SALMONELLA TYPHIMURIUM, Strain/Indicator: TA100, Metabolic Activation: RAT, LIVER, S-9, AROCLOR 1254, Method: PREINCUBATION inactive; negative | [3] inactive; negative | Test System: AMES SALMONELLA TYPHIMURIUM, Strain/Indicator: TA102, Metabolic Activation: RAT, LIVER, S-9, AROCLOR 1254, Method: PREINCUBATION inactive; negative

O=[N+]([O-])c1c2c(c3ccc4cccc5ccc1c3c45)C=CCC2
inactive: [4] inactive; negative | [5] inactive; negative | [6] inactive; negative | [7] inactive; negative

Cc1c2ccccc2cc2c3c(ccc12)C(=O)C(=O)C=C3
active: Test System: AMES SALMONELLA TYPHIMURIUM, Strain/Indicator: TA97A, Metabolic Activation: NONE, Method: PREINCUBATION active; positive
inactive: [1] inactive; negative | [2] inactive; negative | [3] inactive; negative | Test System: AMES SALMONELLA TYPHIMURIUM, Strain/Indicator: TA104, Metabolic Activation: NONE, Method: PREINCUBATION inactive; negative

O=C(O)C(F)(F)C(F)(Cl)C(F)(F)C(F)(Cl)C(F)(F)C(F)(Cl)C(F)(F)Cl (configuration not stated)
inactive: [1] inactive; negative | Test System: AMES SALMONELLA TYPHIMURIUM, Strain/Indicator: TA98, Metabolic Activation: RAT, LIVER, S-9, Method: PREINCUBATION inactive; negative | [2] inactive; negative | Test System: AMES SALMONELLA TYPHIMURIUM, Strain/Indicator: TA100, Metabolic Activation: RAT, LIVER, S-9, Method: PREINCUBATION inactive; negative | Test System: AMES SALMONELLA TYPHIMURIUM, Strain/Indicator: TA1535, Metabolic Activation: NONE, Method: PREINCUBATION inactive; negative | Test System: AMES SALMONELLA TYPHIMURIUM, Strain/Indicator: TA1535, Metabolic Activation: RAT, LIVER, S-9, Method: PREINCUBATION inactive; negative | Test System: AMES SALMONELLA TYPHIMURIUM, Strain/Indicator: TA1537, Metabolic Activation: NONE, Method: PREINCUBATION inactive; negative | Test System: AMES SALMONELLA TYPHIMURIUM, Strain/Indicator: TA1537, Metabolic Activation: RAT, LIVER, S-9, Method: PREINCUBATION inactive; negative | Test System: AMES SALMONELLA TYPHIMURIUM, Strain/Indicator: TA1538, Metabolic Activation: NONE, Method: PREINCUBATION inactive; negative | Test System: AMES SALMONELLA TYPHIMURIUM, Strain/Indicator: TA1538, Metabolic Activation: RAT, LIVER, S-9, Method: PREINCUBATION inactive; negative | Test System: CHINESE HAMSTER OVARY, Strain/Indicator: CHO-K1-BH4 (HGPRT), Metabolic Activation: NONE, Method: STANDARD PLATE inactive; negative | Test System: CHINESE HAMSTER OVARY, Strain/Indicator: CHO-K1-BH4 (HGPRT), Metabolic Activation: RAT, LIVER, S-9, Method: STANDARD PLATE inactive; negative | Test System: UDS RODENT HEPATOCYTES, Strain/Indicator: THY INCORP (NON-S-PHASE), Metabolic Activation: NONE, Method: AUTORADIOGRAPHY inactive; negative

CC(C)(C)NC(=O)C=Cc1ccc([N+](=O)[O-])o1
active: [1] active; positive

C=C(C)c1ccc(C)c2ccc(C=O)c-2c1
active: [5] active; positive | [7] active; positive
inactive: [4] inactive; negative | [6] inactive; negative

Brc1ccc2c(c1)[C@H]1O[C@H]1[C@H]1CCCC[C@H]21
inactive: [4] inactive; negative | [6] inactive; negative

Cc1cc(O)c2c(O)c3c(O)cccc3cc2c1
inactive: [4] inactive; negative | [5] inactive; negative | [6] inactive; negative | [7] inactive; negative | Test System: AMES SALMONELLA TYPHIMURIUM, Strain/Indicator: TA1535, Metabolic Activation: NONE, Method: STANDARD PLATE inactive; negative | Test System: AMES SALMONELLA TYPHIMURIUM, Strain/Indicator: TA1535, Metabolic Activation: RAT, LIVER, S-9, AROCLOR 1254, Method: STANDARD PLATE inactive; negative | Test System: AMES SALMONELLA TYPHIMURIUM, Strain/Indicator: TA1538, Metabolic Activation: NONE, Method: STANDARD PLATE inactive; negative | Test System: AMES SALMONELLA TYPHIMURIUM, Strain/Indicator: TA1538, Metabolic Activation: RAT, LIVER, S-9, AROCLOR 1254, Method: STANDARD PLATE inactive; negative
active: Test System: AMES SALMONELLA TYPHIMURIUM, Strain/Indicator: TA1537, Metabolic Activation: RAT, LIVER, S-9, AROCLOR 1254, Method: STANDARD PLATE active; positive

[Cl][Cu][Cl]
active: Test System: E. COLI, Strain/Indicator: WP2 UVRA, Metabolic Activation: NONE, Method: SPOT TEST active; positive | Test System: E. COLI, Strain/Indicator: WP2 UVRA, Metabolic Activation: NONE, Method: STANDARD PLATE active; positive

CCCCCCCC/C=C\CCCCCCCCCCCC(=O)NCCCCCCCCCCCCCCCCCC
inactive: Test System: AMES SALMONELLA TYPHIMURIUM, Strain/Indicator: TA97, Metabolic Activation: NONE, Method: STANDARD PLATE inactive; negative | Test System: AMES SALMONELLA TYPHIMURIUM, Strain/Indicator: TA97, Metabolic Activation: S-9, Method: STANDARD PLATE inactive; negative | [4] inactive; negative | Test System: AMES SALMONELLA TYPHIMURIUM, Strain/Indicator: TA98, Metabolic Activation: S-9, Method: STANDARD PLATE inactive; negative | [6] inactive; negative | Test System: AMES SALMONELLA TYPHIMURIUM, Strain/Indicator: TA100, Metabolic Activation: S-9, Method: STANDARD PLATE inactive; negative | Test System: AMES SALMONELLA TYPHIMURIUM, Strain/Indicator: TA102, Metabolic Activation: NONE, Method: STANDARD PLATE inactive; negative | Test System: AMES SALMONELLA TYPHIMURIUM, Strain/Indicator: TA102, Metabolic Activation: S-9, Method: STANDARD PLATE inactive; negative | Test System: E.COLI, Strain/Indicator: WP2 (PKM101), Metabolic Activation: NONE, Method: STANDARD PLATE inactive; negative | Test System: E.COLI, Strain/Indicator: WP2 (PKM101), Metabolic Activation: S-9, Method: STANDARD PLATE inactive; negative

Nc1nc(-c2ccc([N+](=O)[O-])o2)cs1
active: Test System: AMES SALMONELLA TYPHIMURIUM, Strain/Indicator: TA100, Metabolic Activation: RAT, LIVER, S-9, KC500 OR PHENOBARBITAL, Method: LIQUID SUSPENSION active; positive | Test System: E. COLI WP2, Strain/Indicator: WP2, Metabolic Activation: NONE, Method: SPOT active; positive

ClCc1cc2cccc3ccc4cc5ccccc5c1c4c32
active: [4] active; positive | [6] active; positive

BrCc1ccc2cccc3c2c1-c1ccccc1-3
active: [4] active; positive | [6] active; positive
